Results as given in US7332177B1, “Method and formulation for treating resistance to antihypertensives and related conditions” (Neurim Pharmaceuticals (1991) Ltd., priority 2000, dated 2008).

Experiments:
[1] = Experiment 1: morning blood pressure after 3 weeks of controlled-release melatonin in elderly insomnia patients; assay type: in vivo, human; conditions: hypertensive elderly subjects; administration in the evening
Method: All patients, who had been insomniacs, were diagnosed according to DSM IV. They consisted of 86 men and 96 women, age 72±9 years. […] During the last week of the treatment period, BP was assessed at the morning and comparisons were made between placebo or melatonin treatments, and baseline.

rabbit aorta = conditions: high concentrations 10-1000 μM; in vitro; cited from earlier work
[2] = 2 mg/os daily at 18:00 h for 2 months; adult men; cited from earlier work

COc1ccc2[nH]cc(CCNC(C)=O)c2c1 [melatonin]
daytime systolic and diastolic blood pressure [1]: decreased | Vasorelaxing action (rabbit aorta): observed | mean serum melatonin levels [2]: marked elevation
